The text below walks through data of a melting point compilation (Tetko et al.; mined from patent text by program, amines drawn as free bases though some values may be those of a salt).

What is called melting point is the temperature, or range, at which the solid turns liquid.

Structures are written as SMILES.

Consider `CNC(=O)c1ccc(C)c(-c2nc(SC)nc3c2CNC(=O)N3c2c(F)cccc2F)c1`, for which the melting point was in the range of 273 to 275 °C. With `O=C(CCc1ccccc1)N[C@H]1C[C@H](C(=O)O)Nc2cc(Cl)cc(Cl)c21` (relative stereo) the figure was 188 °C; with `CCCCCCCNC(=O)N(C)c1cccc(-c2ccc(C=C(C)C(=O)O)cc2OCC)c1`, 123 °C; with `Cc1c(C#N)sc(N=Nc2c(NCC(C)O)nc(NCC(C)O)c(C#N)c2C)c1C#N` (configuration not stated), 268 to 269 °C. Compound `Cc1cc(F)ccc1-c1nc(NC(C)(C)CO)nc2c1ccc(=O)n2-c1ccccc1F` displayed a melting point of 106 to 112 °C. The value for `COc1nc(OC)c(C(C)C)c(C(=O)c2cc(C)cc(Br)c2)n1` was 122 to 123 °C; that for `Cc1cc2c(OCc3ccc(C#N)cc3)cccc2o1` was 84 to 85 °C; that for `CC(C)c1nc(C#N)c(C#N)[nH]1` was 146 to 149 °C.

Take `CC1CCc2c(C#N)c(F)cc3c(=O)c(C(=O)O)cn1c23` (configuration not stated): the melting point was 300 °C. For `O=C(O)C(=O)c1ccc(S(=O)(=O)CCOc2ccc3ccccc3c2)cc1`, the melting point was 135 to 136 °C. With `CC(=O)N(C)c1ccc(C(=O)N2CCN(CCc3ccc(Br)cc3)CC2)cc1` the figure was 161 to 162 °C; with `CCc1cccc(CC)c1NC(=O)CCSc1cc(C(C)(C)C)c(O)c(C(C)(C)C)c1`, 150 to 152 °C; with `COc1ccc(C=O)c(OCC#N)c1`, 96 to 101 °C. Compound `CC(C)On1nnc2ccc(Cn3ccnc3)cc21` yielded a melting point of 114 °C. Compound `O=C(NCC1CC1)c1ccnc(N2CCN(Cc3ccc(F)cc3)C2=O)c1` gave a melting point of 135 to 137 °C. With `ClCc1nc(NCc2ccccn2)c2c(-c3ccccc3)csc2n1` the figure was 97 to 99 °C.

`C=Cn1cc(C(=O)O)c(=O)c2cc(F)c(N3CCN(C)C(C)C3)c(F)c21` (configuration not stated): the melting point lay within 178 to 179 °C. The value for `Cc1ccc(-c2c3n(c(=O)c4ncccc24)CCCN(Cc2cc(C(F)(F)F)cc(C(F)(F)F)c2)C3=O)cc1` was 194 to 195 °C; that for `CCC(C#N)C(Br)c1ccc(Br)cc1` (configuration not stated) was 87 °C; that for `Cc1ccc(C(=O)Nc2ccc(N3CCCC3)c(C(F)(F)F)c2)cc1Nc1nccc(-c2cccnc2)n1` was 129 to 130 °C. `O=C(N[C@@H](CSC(=O)OCc1ccccc1)C(=O)O)OCc1ccccc1` displayed a melting point of 93 to 94 °C. `Cc1cc(C)n(C)c1C(=O)c1cccnc1` showed a melting point of 195 to 197 °C. The value for `CC(C)(C)OC(=O)N1CCN(c2ccc(N)cc2)CC1` was 95 to 96 °C; that for `COc1ccc(N2CCN(C3CN(C4c5c(C)cc(C)c(C)c5OC4(C)C)CCN3c3ccccc3)CC2)cc1` (configuration not stated) was 144 to 145 °C.

With `CNC(=N[N+](=O)[O-])N(Cc1cnc(Cl)s1)C(=O)N1CCOCC1`, the melting point lay within 130 to 131 °C. For the compound `CCOc1c(C2=C(C(C)(C)C)C(C)(C)CO2)sc2ccc(O[Si](C)(C)C(C)(C)C)cc12`, the melting point was 64 to 65 °C. `CCOC(=O)Cc1sc(Sc2nccc(C)c2C(=O)O)nc1C` showed a melting point of 169 to 171 °C. With `NC(=O)CNC(=O)c1ccc(-c2cccc3cc(Cc4cccc(C(F)(F)F)c4)sc23)nc1` the figure was 191 to 192 °C; with `COC(=O)C(F)(F)CC(C)C1CCC2C3CC=C4CC(OC(C)=O)CCC4(C)C3CCC12C` (configuration not stated), 132 °C. As for `CCOC(=O)c1nc(N)sc1C(=O)c1ccccn1`, the melting point is 143 to 144 °C. `CCC1=Nc2nc(C3CCCC3)[nH]c2C2=N[C@H](Cc3ccccc3)CN12` came in with a melting point of 187 to 189 °C.

Turning to `COc1cc(C)c2cc(C(=O)c3ccc(C(=O)O)cc3)ccc2c1C`, the melting point turned out to be 240 °C.

On to `Fc1cc(F)cc(C=Cc2cc3cc4ccccc4cc3s2)c1`, for which the melting point fell in the range of 265 to 267 °C. With `CC(C)Oc1ccc(CCCOc2cc(CCC(=O)O)n(-c3ccccc3)n2)c(OCc2ccc(C(F)(F)F)cc2)c1` the figure was 118 to 119 °C. The value for `O=C(NCc1ncccn1)c1cnc(N2CCC[C@H]2CO)nc1NCc1cccc(Cl)c1` was 153 to 156 °C. In turn, `O=C(Cl)CCCCCCCBr` displayed a melting point of 110 to 112 °C. With `Fc1ccc(C#CC2=CCN(Cc3coc4ccccc34)CC2)cc1` the figure was 79 to 80 °C. The value for `CN(C)C=CC(=O)c1c(-c2ccc(F)cc2)nc2occn12` was 187 to 189 °C; that for `CC1CCN(CCOc2ccc(NC(=O)CC(=O)c3ccc(-c4ccccc4)cc3)cc2Cl)CC1` was 135 to 139 °C.

In turn, `COC(=O)c1cc2c(Oc3ccc(Cl)cc3)cncc2s1` came in with a melting point of 99 to 100 °C. The compound `O=C(N[C@@H](CO)c1ccccc1)c1ccco1` displayed a melting point of 130 to 131 °C. With `CCCOc1cc(OCCC)c2c(C)c(CCO)c(=O)oc2c1` the figure was 106 to 108 °C.

`COc1cccc(OS(=O)(=O)c2ccc(N3CCN(C)C3=O)cc2)c1` yielded a melting point of 111 to 113 °C. Regarding `CC(C)(C)OC(=O)N[C@@H](CC1CCCCC1)[C@@H](O)CCO`, the melting point lay within 77 to 79 °C.

`Cc1ccc(C)c2c1CCC2=O` gave a melting point of 70 °C. With `CN(C(=O)c1cccc(C(=O)O)c1)c1ccc2c(=O)n3c(nc2c1)C(=Cc1ccccc1)CC3` the figure was 302 to 304 °C; with `CC(C)(C)C(=N)Nc1ccccc1N1CCOCC1`, 126 °C; with `Cc1cc(C(F)(F)F)nn1CC(=O)N1CCC(c2nc(C3=NOC(c4cccc(-n5cncn5)c4)C3)cs2)CC1` (configuration not stated), 83 to 85 °C. In turn, `CCc1nc2c(C)cc(C)nc2n1Cc1ccc(C2(C(=O)O)CCOCC2)s1` came in with a melting point of 214 to 215 °C. Compound `Cc1c2n(c3ccccc13)C(=O)C(=Cc1ncn(S(=O)(=O)N(C)C)c1C)CC2` displayed a melting point of 200 to 205 °C. With `Cc1cc(C)n(-c2nc(Nc3ccc(N4CCOCC4)cc3)c3ccccc3n2)n1` the figure was 268 to 270 °C; with `CCOC(=O)c1cnn2c(C3CC3)cc(-c3ccc(C(F)(F)F)cc3)cc12`, 117 °C; with `CCN(C)c1nc(-c2ccncc2)nc2sc(C#N)c(C)c12`, 162 to 164 °C. `Cc1ncn(C)c1-c1nc(C2CC2)no1`: the melting point came out at 88 °C. In turn, `Cc1cc(-n2nc(C#N)cc2-c2ccc(S(C)(=O)=O)cc2)ccc1Br` returned a melting point of 152 °C. Consider `CC(C)(C)OC(=O)NC1CNc2c(cc(Br)cc2[N+](=O)[O-])C1` (configuration not stated), for which the melting point was 193 to 195 °C. In the case of `CNS(=O)(=O)CC(=O)C=C(C)N`, the melting point was 158 to 162 °C.

Compound `O=C(CNc1ccc2[nH]c(=O)oc2c1)N1CCC(Oc2ccccc2)CC1` yielded a melting point of 220 to 223 °C. As for `COc1ccc2[nH]c3c(C(=O)Nc4ccc(CCCCN(C)CCc5ccc(OC)c(OC)c5)cc4)cccc3c(=O)c2c1`, the melting point was 155 °C. `C#CCOC(=O)c1ncn2c1[C@@H]1CCCN1C(=O)c1c(Cl)cccc1-2` showed a melting point of 213 to 214 °C. With `Nc1nnc(C(=O)OCc2ccccc2)s1` the figure was 198 to 200 °C; with `CCOC(=O)c1cn(CCCl)c2cc(-n3cccc3)c(F)cc2c1=O`, 254 to 256 °C; with `COC(=O)COc1ccc2cc(-c3cnc(Cc4ccc5ccccc5c4)o3)ccc2c1`, 147 to 149 °C. With `O=C(N[C@@H](Cc1ccc2ccccc2c1)[C@H]1CO1)OCc1ccccc1` the figure was 115 to 116 °C. With `O=C1CCc2cc(CN3CCN(C(=O)c4ccc(Oc5ccc(NC(=O)c6ccc(C(F)(F)F)cc6)cn5)cc4)CC3)ccc2N1` the figure was 250 to 252 °C; with `COC(=O)N1CC[C@H](Nc2nc3cncnc3n2Cc2ccc(F)cc2)[C@H](C)C1` (relative stereo), 152 °C. Take `COc1cc2nc(N)nc(-c3cccc(OC(F)(F)F)c3)c2cc1OC`: the melting point lay in the range of 233 to 235 °C. For `O=[N+]([O-])CS(=O)(=O)c1ccccc1C(F)(F)F`, the melting point is 80 °C.

Take `COC(=O)c1ccc(Cl)c(C2(O)C(=O)N(Cc3ccc(Cl)cc3OC)c3ccc(Cl)cc32)c1` (configuration not stated): the melting point came to 205 °C. With `CCCCCCCCC1(C)Cc2ccc(-c3nc4cc(CCCC)ccc4o3)cc2C1=O` (configuration not stated) the figure was 93 °C; with `CCOCc1cc2cc(Br)ccc2oc1=O`, 118 to 119 °C; with `CS(=O)(=O)Nc1cc2occ(-c3cscn3)c(=O)c2cc1Oc1ccccc1`, > 250 °C. `CCNC1CN(c2c(F)cc3c(=O)c(C(=O)O)cn(C4CC4)c3c2F)C1` yielded a melting point of 222 to 227 °C. With `O=C(O)c1ccc2oc([N+](=O)[O-])c(-c3ccccc3)c2c1` the figure was 271 to 273 °C; with `COC(=O)[C@@H]1[C@@H](Cc2ccccc2)C[C@@H]2CC[C@H]1N2C`, 79 to 80 °C; with `Cc1noc(C)c1-c1nn(Cc2ccccc2)c(=O)c2ccccc12`, 186 to 188 °C. With `CC1(C)C(C=NOCC2CC2)C1C(=O)O` (configuration not stated) the figure was 82 to 85 °C; with `N#Cc1ncn2c1[C@@H]1CCCN1C(=O)c1ccccc1-2`, 223 to 225 °C. With `COC(=O)C=Cc1cnc(SC)nc1N` the figure was 192 to 196 °C. For the compound `CC(=O)OC1CCC2(C)C(CCC3C4CCC(C(C)=O)C4(C)CC(O)C32Cl)C1` (configuration not stated), the melting point is 175 to 179 °C.

With `Cc1nc2nc(-c3ccc(Cl)cc3)nn2c(=S)n1C`, the melting point is > 300 °C.

Consider `O=C(O)CCCn1ccc(=O)c(OCc2ccccc2)c1C(O)c1ccccc1` (configuration not stated), for which the melting point lay within 205 to 210 °C. `COc1cc2nc(S(=O)Cc3cccn4ccnc34)[nH]c2cc1OC` (configuration not stated) yielded a melting point of 195 to 196 °C. With `O=C(CO)Nc1cc(-c2ccncc2)c[nH]c1=O` the figure was 271 to 274 °C. The value for `CC1=C(c2cccc(C(F)(F)F)c2)n2ncc(C#N)c2N(C(=O)CCl)C1` was 178 to 182 °C; that for `COC(=O)c1cc2ccccc2n1C1=CC(C)(C)Oc2ccc(C#N)cc21` was 197 to 200 °C; that for `COc1ccc(S(=O)(=O)N(CCC(F)=C(F)F)c2ccccc2/C=C/c2ccncc2)cc1` was 148 to 149 °C.
